Measurements as given in paper PMC6298744 (Biochemical pharmacology, 2018).

Columns and labels:
[1] = target: T1, hDAT (Homo sapiens, UniProt Q01959); settings: read-out: affinity of [^125I]RTI-55 binding sites, DAT; HEK-hDAT; cited from earlier work
[2] = target: T2, hNET (Homo sapiens, UniProt P23975); settings: read-out: affinity of [^125I]RTI-55 binding sites, NET; HEK-hNET; cited from earlier work
[3] = cited from earlier work
[4] = Human blood concentrations after ingestion; settings: converted from cited ng/ml values
[5] = target: T3, 5-HT2C receptor (Homo sapiens, UniProt P28335); settings: read-out: affinity of [^125I]DOI binding sites, h5-HT2C; HEK-5-HT2C; radioligand affinity
T3 sequence (P28335 33-458): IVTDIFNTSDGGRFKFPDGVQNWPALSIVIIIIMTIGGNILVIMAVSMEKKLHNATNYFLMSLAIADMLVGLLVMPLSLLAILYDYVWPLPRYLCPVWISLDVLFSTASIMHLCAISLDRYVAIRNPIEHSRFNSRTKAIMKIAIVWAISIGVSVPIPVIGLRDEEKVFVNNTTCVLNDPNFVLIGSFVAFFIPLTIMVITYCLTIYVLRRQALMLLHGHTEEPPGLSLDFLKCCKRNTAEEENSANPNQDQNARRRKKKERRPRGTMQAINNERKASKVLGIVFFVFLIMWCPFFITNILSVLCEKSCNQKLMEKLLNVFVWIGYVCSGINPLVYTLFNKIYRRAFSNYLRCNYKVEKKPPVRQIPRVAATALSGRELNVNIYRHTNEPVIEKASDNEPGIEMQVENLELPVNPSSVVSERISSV

[6] = target: T4, 5-HT2A receptor (Homo sapiens, UniProt P28223); assay: biochemical; type: binding
[7] = target: T5, human 5-HT1A receptor (Homo sapiens, UniProt P08908); assay: 5-HT1A receptor [^35S]GTPγS binding stimulation; type: biochemical
T5 sequence (P08908 1-422): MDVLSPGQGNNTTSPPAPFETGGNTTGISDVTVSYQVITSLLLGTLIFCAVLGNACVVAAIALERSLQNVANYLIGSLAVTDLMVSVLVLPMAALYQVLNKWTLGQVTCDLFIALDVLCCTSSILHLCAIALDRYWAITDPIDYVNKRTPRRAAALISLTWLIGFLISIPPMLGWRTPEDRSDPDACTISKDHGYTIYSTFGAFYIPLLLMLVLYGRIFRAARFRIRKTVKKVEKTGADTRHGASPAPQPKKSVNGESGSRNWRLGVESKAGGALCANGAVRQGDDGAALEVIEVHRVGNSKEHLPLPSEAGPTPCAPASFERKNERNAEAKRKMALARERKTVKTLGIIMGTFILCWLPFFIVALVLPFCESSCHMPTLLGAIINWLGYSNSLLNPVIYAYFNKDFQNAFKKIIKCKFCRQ

[8] = target: T4, 5-HT2A receptor; assay: cell-based; type: cell-based
[9] = target: T6, 5-HT2B receptor (Homo sapiens, UniProt P41595); assay: 5-HT2B receptor inositol monophosphate; type: cell-based
[10] = target: T3, 5-HT2C receptor; assay: cell-based
[11] = target: T1, hDAT; assay: Inhibition of [^125I]RTI-55 binding to hDAT
[12] = target: T7, hSERT (Homo sapiens, UniProt P31645); assay: Inhibition of [^125I]RTI-55 binding to hSERT
[13] = target: T2, hNET; assay: biochemical; type: binding
[14] = target: T1, hDAT; assay: Inhibition of [^3H]DA uptake by HEK-hDAT cells; type: cell-based
[15] = target: T7, hSERT; assay: Inhibition of [^3H]5-HT uptake by HEK-hSERT cells; type: cell-based
[16] = target: T2, hNET; assay: cell-based
[17] = target: T1, hDAT; assay: Release of preloaded [^3H]DA from HEK-hDAT cells; type: cell-based
[18] = target: T7, hSERT; assay: Release of preloaded [^3H]5-HT from HEK-hSERT cells; type: cell-based
[19] = target: T2, hNET; assay: Release of preloaded [^3H]NE from HEK-hNET cells; type: cell-based
[20] = taken hours after ingestion; cited from earlier work
[21] = target: T6, 5-HT2B receptor; assay: 5-HT2B receptor [^3H]5-HT binding

T6 sequence (P41595 whole entry): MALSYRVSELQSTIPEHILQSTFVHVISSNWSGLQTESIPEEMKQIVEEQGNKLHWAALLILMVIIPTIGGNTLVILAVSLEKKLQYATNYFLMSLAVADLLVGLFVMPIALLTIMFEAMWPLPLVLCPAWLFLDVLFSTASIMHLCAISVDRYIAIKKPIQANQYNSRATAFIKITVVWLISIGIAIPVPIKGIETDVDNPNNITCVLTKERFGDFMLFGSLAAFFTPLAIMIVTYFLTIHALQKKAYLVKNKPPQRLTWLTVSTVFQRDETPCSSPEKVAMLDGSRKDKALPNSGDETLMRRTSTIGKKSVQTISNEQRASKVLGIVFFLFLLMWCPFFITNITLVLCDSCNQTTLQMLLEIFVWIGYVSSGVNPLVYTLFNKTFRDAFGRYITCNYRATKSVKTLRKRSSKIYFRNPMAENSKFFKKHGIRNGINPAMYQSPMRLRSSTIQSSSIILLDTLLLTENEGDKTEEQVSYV
T1 sequence (Q01959 whole entry): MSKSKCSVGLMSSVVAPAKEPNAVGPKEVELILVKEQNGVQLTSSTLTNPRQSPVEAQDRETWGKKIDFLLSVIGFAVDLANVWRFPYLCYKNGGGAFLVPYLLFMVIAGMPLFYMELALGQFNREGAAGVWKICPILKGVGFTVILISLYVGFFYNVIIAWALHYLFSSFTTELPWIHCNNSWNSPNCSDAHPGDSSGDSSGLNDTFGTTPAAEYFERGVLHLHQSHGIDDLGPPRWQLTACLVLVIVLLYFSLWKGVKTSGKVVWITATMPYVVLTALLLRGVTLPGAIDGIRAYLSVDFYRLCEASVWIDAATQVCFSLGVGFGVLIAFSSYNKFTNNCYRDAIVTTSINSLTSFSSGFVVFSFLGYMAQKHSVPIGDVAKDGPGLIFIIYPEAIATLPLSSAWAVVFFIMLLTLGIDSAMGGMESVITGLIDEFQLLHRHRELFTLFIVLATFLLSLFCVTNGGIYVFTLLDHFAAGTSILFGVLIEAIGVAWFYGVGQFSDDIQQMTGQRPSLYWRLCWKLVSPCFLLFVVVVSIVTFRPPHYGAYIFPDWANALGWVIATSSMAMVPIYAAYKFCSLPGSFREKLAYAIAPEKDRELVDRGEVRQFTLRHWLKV
T4 sequence (P28223 whole entry): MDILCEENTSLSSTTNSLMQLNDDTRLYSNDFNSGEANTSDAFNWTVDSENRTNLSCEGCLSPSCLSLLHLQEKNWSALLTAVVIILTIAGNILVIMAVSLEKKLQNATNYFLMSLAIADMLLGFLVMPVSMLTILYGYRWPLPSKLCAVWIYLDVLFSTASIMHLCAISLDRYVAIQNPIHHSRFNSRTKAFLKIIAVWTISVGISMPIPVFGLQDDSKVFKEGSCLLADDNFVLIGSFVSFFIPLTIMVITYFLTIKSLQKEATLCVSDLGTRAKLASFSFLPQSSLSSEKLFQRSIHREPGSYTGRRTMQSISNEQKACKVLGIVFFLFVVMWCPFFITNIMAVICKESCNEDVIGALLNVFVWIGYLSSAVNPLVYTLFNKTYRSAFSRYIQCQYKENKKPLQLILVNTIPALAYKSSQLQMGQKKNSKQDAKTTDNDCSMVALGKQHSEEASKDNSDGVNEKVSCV
T2 sequence (P23975 whole entry): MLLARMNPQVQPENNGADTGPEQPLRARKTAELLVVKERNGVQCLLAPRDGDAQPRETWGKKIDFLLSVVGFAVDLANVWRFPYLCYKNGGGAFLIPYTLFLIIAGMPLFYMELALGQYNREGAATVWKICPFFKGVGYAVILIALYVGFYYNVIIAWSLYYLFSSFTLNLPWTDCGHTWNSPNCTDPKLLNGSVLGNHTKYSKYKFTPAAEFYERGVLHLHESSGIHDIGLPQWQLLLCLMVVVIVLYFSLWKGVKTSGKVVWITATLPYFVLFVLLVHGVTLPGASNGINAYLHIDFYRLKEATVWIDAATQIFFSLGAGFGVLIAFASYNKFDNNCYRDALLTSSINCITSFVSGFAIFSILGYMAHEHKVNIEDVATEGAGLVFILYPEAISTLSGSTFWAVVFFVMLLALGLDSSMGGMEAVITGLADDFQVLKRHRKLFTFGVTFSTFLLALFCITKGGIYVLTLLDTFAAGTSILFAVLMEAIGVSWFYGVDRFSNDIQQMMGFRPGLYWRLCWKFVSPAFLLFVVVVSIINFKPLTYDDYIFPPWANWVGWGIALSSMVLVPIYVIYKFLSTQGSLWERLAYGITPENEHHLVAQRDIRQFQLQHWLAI
T7 sequence (P31645 whole entry): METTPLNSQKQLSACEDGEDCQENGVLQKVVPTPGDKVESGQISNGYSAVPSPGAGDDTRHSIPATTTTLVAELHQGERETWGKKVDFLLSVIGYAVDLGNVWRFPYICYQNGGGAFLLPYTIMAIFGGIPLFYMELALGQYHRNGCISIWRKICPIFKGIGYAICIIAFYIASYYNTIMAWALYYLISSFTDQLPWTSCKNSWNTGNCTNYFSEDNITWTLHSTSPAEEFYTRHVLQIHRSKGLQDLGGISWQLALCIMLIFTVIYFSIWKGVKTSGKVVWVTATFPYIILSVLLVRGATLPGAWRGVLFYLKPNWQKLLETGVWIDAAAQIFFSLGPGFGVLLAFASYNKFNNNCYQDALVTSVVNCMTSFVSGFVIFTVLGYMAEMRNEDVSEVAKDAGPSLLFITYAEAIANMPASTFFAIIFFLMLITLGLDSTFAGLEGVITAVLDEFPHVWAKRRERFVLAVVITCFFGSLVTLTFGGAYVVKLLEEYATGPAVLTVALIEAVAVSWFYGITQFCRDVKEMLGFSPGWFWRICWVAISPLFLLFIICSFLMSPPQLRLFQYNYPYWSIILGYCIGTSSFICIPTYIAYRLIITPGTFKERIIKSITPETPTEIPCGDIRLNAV

SMILES: COC(=O)[C@H]1[C@@H](c2ccc(I)cc2)CC2CC[C@H]1N2C [[^125I]RTI-55, [^125I]methyl (1R,2S,3S)-3-(4-iodophenyl)-8-methyl-8-azabicyclo[3.2.1]octane-2-carboxylate]
- Kd [1]: 1.83 nM
- Kd [2]: 12.1 nM

SMILES: COc1cc(CCNCc2ccccc2OC)c(OC)cc1I [25I-NBOMe]
- Postmortem brain tissue concentration [3]: 2.54 ng/g
- Postmortem peripheral blood concentration [3]: 0.405 ng/mL
- blood concentration (molar) [4]: ~ 8 nM

SMILES: COc1cc(CC(C)N)c(OC)cc1I (stereo not drawn) [[^125I]DOI, [^125I]2,5-dimethoxy-4-iodoamphetamine]
- Kd [5]: 4.18 nM

SMILES: COc1ccc(OC)c(CCNCc2ccccc2OC)c1 [25H-NBOMe, 2-(2,5-dimethoxyphenyl)-N-(2-methoxybenzyl)ethanamine]
- Ki [6]: 4.9 ± 1.3 nM
- Selectivity (binding ratios) 5-HT2A : 5-HT1A ([6]; ratio of Ki values): 920
- Selectivity (binding ratios) 5-HT2A : 5-HT2B ([6]; ratio of Ki values): 13
- Selectivity (binding ratios) 5-HT2A : 5-HT2C ([6]; ratio of Ki values): 3.3
- EC50 [7]: 28400 ± 8600 nM
- Emax ([7]; read-out: % maximum stimulation, 5-HT1A stimulation of [^35S]GTPγS binding): 52%
- EC50 ([8]; EC50, 5-HT2A stimulation of IP-1 formation, mean ± sem): 40.7 ± 8.1 nM
- Selectivity (functional ratios) 5-HT2A: 5-HT1A ([8]; ratio of EC50 values): 700
- Selectivity (functional ratios) 5-HT2A: 5-HT2B ([8]; ratio of EC50 values): 11
- Selectivity (functional ratios) 5-HT2A: 5-HT2C ([8]; ratio of EC50 values): 0.34
- Emax ([8]; read-out: % maximum stimulation, 5-HT2A stimulation of IP-1 formation): 85.9%
- EC50 [9]: 463 ± 71 nM
- Emax ([9]; read-out: % maximum stimulation, 5-HT2B stimulation of IP-1 formation): 37.7%
- EC50 [10]: 13.8 ± 2.6 nM
- Emax ([10]; read-out: % maximum stimulation, 5-HT2C stimulation of IP-1 formation): 95.5%
- Ki [11]: 81400 ± 8900 nM
- Ki [12]: 2220 ± 340 nM
- Ki [13]: 16300 ± 2600 nM
- IC50 [14]: > 100000 nM
- IC50 [15]: 2080 ± 310 nM
- IC50 [16]: 3650 ± 880 nM
- EC50 [17]: > 100000 nM
- % maximum release, hDAT [^3H]DA ([17]; relative to maximum release induced by METH (1–10 μM)): −0.18 ± 0.26%
- EC50 [18]: > 100000 nM
- % maximum release, hSERT [^3H]5-HT ([18]; relative to maximum release induced by METH (0.3–1 mM)): −0.27 ± 0.49%
- EC50 [19]: > 66000 nM
- % maximum release, hNET [^3H]NE ([19]; relative to maximum release induced by METH (0.3–1 μM)): 21 ± 12%
- Human blood concentration [20]: 0.29 ng/mL
- Ki [21]: 62.9 ± 7.5 nM
- blood concentration (molar) [4]: ~ 0.9 nM
